Measured values from publication PMC5218480 (PLoS ONE, 2017).

Test system: MV-4-11 cells
Assay: Gene expression microarray analysis (Affymetrix PrimeView) and GSEA
Type: cell-based, human
Set-up: RFU PODN (11730768_x_at) / Fold change /veh PODN (11730768_x_at) / RFU LINC00158 (11744669_a_at) / Fold change /veh LINC00158 (11744669_a_at) / RFU DUSP10 (11751237_a_at) / Fold change /veh DUSP10 (11751237_a_at) / RFU ID3 (11757404_x_at) / Fold change /veh ID3 (11757404_x_at) / RFU PLEKHG5 (11737974_s_at) / Fold change /veh PLEKHG5 (11737974_s_at) / RFU LRRC4B (11730491_at) / Fold change /veh LRRC4B (11730491_at) / RFU GIMAP4 (11747438_a_at) / Fold change /veh GIMAP4 (11747438_a_at) / RFU KRT8 (11758183_x_at) / Fold change /veh KRT8 (11758183_x_at) / RFU CNN1 (11734310_a_at) / Fold change /veh CNN1 (11734310_a_at) / RFU VPS37D (11726825_at) / Fold change /veh VPS37D (11726825_at) / RFU C10orf10 (11716522_x_at) / Fold change /veh C10orf10 (11716522_x_at) / RFU KIR2DL2 /// KIR2DL4 /// KIR2DL5A /// KIR2DL5B /// KIR2DS1 /// KIR2DS2 /// KIR2DS3 /// KIR2DS4 /// KIR3DL3 /// KIR3DL3 /// KIR3DS1 (11738374_at) / Fold change /veh KIR2DL2 /// KIR2DL4 /// KIR2DL5A /// KIR2DL5B /// KIR2DS1 /// KIR2DS2 /// KIR2DS3 /// KIR2DS4 /// KIR3DL3 /// KIR3DL3 /// KIR3DS1 (11738374_at) / RFU C1QL1 (11718748_at) / Fold change /veh C1QL1 (11718748_at) / RFU TMPRSS4 (11747572_a_at) / Fold change /veh TMPRSS4 (11747572_a_at) / RFU HAMP (11756126_x_at) / Fold change /veh HAMP (11756126_x_at) / RFU RNFT2 (11725882_a_at) / Fold change /veh RNFT2 (11725882_a_at) / RFU NR4A2 (11747474_a_at) / Fold change /veh NR4A2 (11747474_a_at) / RFU ABCC12 (11746883_a_at) / Fold change /veh ABCC12 (11746883_a_at) / RFU TMEM136 (11760407_x_at) / Fold change /veh TMEM136 (11760407_x_at) / RFU CLDN22 /// WWC2 (11732394_at) / Fold change /veh CLDN22 /// WWC2 (11732394_at) / RFU HLA-DPB1 (11760878_x_at) / Fold change /veh HLA-DPB1 (11760878_x_at) / RFU SPINT1 (11716480_a_at) / Fold change /veh SPINT1 (11716480_a_at) / RFU GAP43 (11754022_s_at) / Fold change /veh GAP43 (11754022_s_at) / RFU A4GNT (11735810_at) / Fold change /veh A4GNT (11735810_at) / RFU PRB3 (11715151_x_at) / Fold change /veh PRB3 (11715151_x_at) / RFU TUBB4B (11761932_at) / Fold change /veh TUBB4B (11761932_at) / RFU CAPN14 (11732068_a_at) / Fold change /veh CAPN14 (11732068_a_at) / RFU TMCC2 (11721928_a_at) / Fold change /veh TMCC2 (11721928_a_at) / RFU IRGQ (11745062_a_at) / Fold change /veh IRGQ (11745062_a_at) / RFU FAM174B (11720279_a_at) / Fold change /veh FAM174B (11720279_a_at) / RFU TMPRSS4 (11748680_a_at) / Fold change /veh TMPRSS4 (11748680_a_at) / RFU FAM212B (11763350_a_at) / Fold change /veh FAM212B (11763350_a_at) / RFU PLEKHG5 (11743358_a_at) / Fold change /veh PLEKHG5 (11743358_a_at) / RFU ZSCAN30 (11745921_a_at) / Fold change /veh ZSCAN30 (11745921_a_at) / RFU CMKLR1 (11741424_a_at) / Fold change /veh CMKLR1 (11741424_a_at) / RFU LOC101060620 /// MAPK8IP1 (11723275_at) / Fold change /veh LOC101060620 /// MAPK8IP1 (11723275_at) / RFU SPTSSB (11747773_x_at) / Fold change /veh SPTSSB (11747773_x_at) / RFU PRSS12 (11739890_at) / Fold change /veh PRSS12 (11739890_at) / RFU BIN1 (11741810_x_at) / Fold change /veh BIN1 (11741810_x_at) / RFU WNT11 (11732464_a_at) / Fold change /veh WNT11 (11732464_a_at) / RFU C10orf10 (11716521_a_at) / Fold change /veh C10orf10 (11716521_a_at) / RFU C5orf56 (11738089_at) / Fold change /veh C5orf56 (11738089_at) / RFU CYB561 (11721691_x_at) / Fold change /veh CYB561 (11721691_x_at) / RFU ANKRD19P (11752326_a_at) / Fold change /veh ANKRD19P (11752326_a_at) / RFU OR2T12 /// OR2T33 /// OR2T8 (11738714_s_at) / Fold change /veh OR2T12 /// OR2T33 /// OR2T8 (11738714_s_at) / RFU VCAN (11748164_a_at) / Fold change /veh VCAN (11748164_a_at) / RFU JSRP1 (11732532_at) / Fold change /veh JSRP1 (11732532_at) / RFU KRTAP10-11 (11738290_x_at) / Fold change /veh KRTAP10-11 (11738290_x_at) / RFU MYO3A (11730013_a_at) / Fold change /veh MYO3A (11730013_a_at) / RFU EBF3 (11725865_a_at) / Fold change /veh EBF3 (11725865_a_at) / RFU CAMK2N1 (11719241_x_at) / Fold change /veh CAMK2N1 (11719241_x_at) / RFU C5orf56 (11738088_a_at) / Fold change /veh C5orf56 (11738088_a_at) / RFU OLFML3 (11715873_a_at) / Fold change /veh OLFML3 (11715873_a_at) / RFU LOC100653217 /// NTM (11731650_a_at) / Fold change /veh LOC100653217 /// NTM (11731650_a_at) / RFU MAPK11 (11762145_a_at) / Fold change /veh MAPK11 (11762145_a_at) / RFU FIZ1 (11724087_x_at) / Fold change /veh FIZ1 (11724087_x_at) / RFU OASL (11726364_x_at) / Fold change /veh OASL (11726364_x_at) / RFU SOX15 (11748057_x_at) / Fold change /veh SOX15 (11748057_x_at) / RFU CD79A (11719716_a_at) / Fold change /veh CD79A (11719716_a_at) / RFU HIST1H1D (11736915_at) / Fold change /veh HIST1H1D (11736915_at) / RFU CASKIN2 (11723855_a_at) / Fold change /veh CASKIN2 (11723855_a_at) / RFU LOC730098 (11760151_x_at) / Fold change /veh LOC730098 (11760151_x_at) / RFU OR4N2 (11742367_at) / Fold change /veh OR4N2 (11742367_at) / RFU PRRT2 (11749266_a_at) / Fold change /veh PRRT2 (11749266_a_at) / RFU SNX32 (11753110_a_at) / Fold change /veh SNX32 (11753110_a_at) / RFU CDHR5 (11726645_a_at) / Fold change /veh CDHR5 (11726645_a_at) / RFU RCAN1 (11760418_a_at) / Fold change /veh RCAN1 (11760418_a_at) / RFU FAM167A (11723789_a_at) / Fold change /veh FAM167A (11723789_a_at) / RFU FAM26E (11764081_at) / Fold change /veh FAM26E (11764081_at) / RFU ISYNA1 (11749810_s_at) / Fold change /veh ISYNA1 (11749810_s_at) / RFU ACY1 (11761880_at) / Fold change /veh ACY1 (11761880_at) / RFU 11764098_at / Fold change /veh 11764098_at / RFU SAMD14 (11745864_x_at) / Fold change /veh SAMD14 (11745864_x_at) / RFU NPB (11741838_a_at) / Fold change /veh NPB (11741838_a_at) / RFU TMPRSS6 (11731388_a_at) / Fold change /veh TMPRSS6 (11731388_a_at) / RFU KRTAP10-2 (11738614_at) / Fold change /veh KRTAP10-2 (11738614_at) / RFU ARHGAP8 /// PRR5-ARHGAP8 (11727945_x_at) / Fold change /veh ARHGAP8 /// PRR5-ARHGAP8 (11727945_x_at) / RFU KRTAP5-7 /// NADSYN1 (11734609_at) / Fold change /veh KRTAP5-7 /// NADSYN1 (11734609_at) / RFU RASL12 (11751679_a_at) / Fold change /veh RASL12 (11751679_a_at) / RFU CDKN2B (11736163_a_at) / Fold change /veh CDKN2B (11736163_a_at) / RFU PRF1 (11729649_at) / Fold change /veh PRF1 (11729649_at) / RFU, ZNF638 /// ZNF638-IT1 / Fold change vs veh, ZNF638 /// ZNF638-IT1 / RFU, PANK3 / Fold change vs veh, PANK3 / RFU, SH3YL1 / Fold change vs veh, SH3YL1 / RFU, ZEB2 / Fold change vs veh, ZEB2 / RFU, NRIP1 / Fold change vs veh, NRIP1 / RFU, PTTG1IP / Fold change vs veh, PTTG1IP / RFU, CAPN2 / Fold change vs veh, CAPN2 / RFU, MED14 / Fold change vs veh, MED14 / RFU, SNORA58 / Fold change vs veh, SNORA58 / RFU, C1orf63 / Fold change vs veh, C1orf63 / RFU, LRRFIP1 / Fold change vs veh, LRRFIP1 / RFU, NDUFAF7 / Fold change vs veh, NDUFAF7 / RFU, SLC12A2 / Fold change vs veh, SLC12A2 / RFU, IBTK / Fold change vs veh, IBTK / RFU, ESF1 / Fold change vs veh, ESF1 / Fold change vs veh, TMEM50B / RFU, TAOK1 / Fold change vs veh, TAOK1 / RFU, ACBD3 / Fold change vs veh, ACBD3 / RFU, TMA16 / Fold change vs veh, TMA16 / RFU, RWDD3 / Fold change vs veh, RWDD3 / RFU, BCAT1 / Fold change vs veh, BCAT1 / RFU, EDEM3 / Fold change vs veh, EDEM3 / RFU, TMEM33 / Fold change vs veh, TMEM33 / RFU, WDR75 / Fold change vs veh, WDR75 / RFU, AHCTF1 / Fold change vs veh, AHCTF1 / RFU, TFRC / Fold change vs veh, TFRC / RFU, ZDHHC17 / Fold change vs veh, ZDHHC17 / RFU, NOM1 / Fold change vs veh, NOM1 / RFU, ARL8B / Fold change vs veh, ARL8B / RFU, ZBTB11 / Fold change vs veh, ZBTB11 / RFU, TAMM41 / Fold change vs veh, TAMM41 / RFU, KIAA1704 /// LOC100996395 / Fold change vs veh, KIAA1704 /// LOC100996395 / RFU, ING1 / Fold change vs veh, ING1 / RFU, TRMT61B / Fold change vs veh, TRMT61B / RFU, FUBP3 / Fold change vs veh, FUBP3 / RFU, TP53 / Fold change vs veh, TP53 / RFU, TNKS2 / Fold change vs veh, TNKS2 / RFU, ZFP14 / Fold change vs veh, ZFP14 / RFU, ACTR2 / Fold change vs veh, ACTR2 / RFU, PPP3R1 / Fold change vs veh, PPP3R1 / RFU, PIK3R1 / Fold change vs veh, PIK3R1 / RFU, HNRNPA1 / Fold change vs veh, HNRNPA1 / RFU, RNF170 / Fold change vs veh, RNF170 / RFU, ZNF28 / Fold change vs veh, ZNF28 / RFU, RNGTT / Fold change vs veh, RNGTT / RFU, OGT / Fold change vs veh, OGT / RFU, BRD1 / Fold change vs veh, BRD1 / RFU, MARS / Fold change vs veh, MARS / RFU, ZNF655 / Fold change vs veh, ZNF655 / RFU, FAHD1 / Fold change vs veh, FAHD1 / RFU, BDP1 / Fold change vs veh, BDP1 / RFU, LRRCC1 / Fold change vs veh, LRRCC1 / RFU, ARID1A / Fold change vs veh, ARID1A / RFU, ZNF146 / Fold change vs veh, ZNF146 / RFU, ZNF330 / Fold change vs veh, ZNF330 / RFU, GPN3 / Fold change vs veh, GPN3 / RFU, C9orf123 / Fold change vs veh, C9orf123 / RFU, N4BP2L2 / Fold change vs veh, N4BP2L2 / RFU, ARFIP1 / Fold change vs veh, ARFIP1 / RFU, FAM179B / Fold change vs veh, FAM179B / RFU, BCL10 / Fold change vs veh, BCL10 / RFU, UHRF1BP1L / Fold change vs veh, UHRF1BP1L / RFU, BET1 / Fold change vs veh, BET1 / RFU, CNOT2 / Fold change vs veh, CNOT2 / RFU, ZNF268 / Fold change vs veh, ZNF268 / Fold change vs veh, ZNF507 / RFU, DGCR2 / Fold change vs veh, DGCR2 / RFU, WDSUB1 / Fold change vs veh, WDSUB1 / Fold change vs veh, HSP90B1 /// MIR3652 / RFU, ADSS / Fold change vs veh, ADSS / RFU, GK / Fold change vs veh, GK / RFU, ZNF148 / Fold change vs veh, ZNF148 / RFU, TAF9 / Fold change vs veh, TAF9 / RFU, SLC1A5 / Fold change vs veh, SLC1A5 / RFU, SLMO2 / Fold change vs veh, SLMO2 / RFU, ABCC4 / Fold change vs veh, ABCC4 / RFU, LOC101060439 /// RAP1B / Fold change vs veh, LOC101060439 /// RAP1B / RFU, RFX7 / Fold change vs veh, RFX7 / RFU, GTPBP10 / Fold change vs veh, GTPBP10 / RFU, CNEP1R1 / Fold change vs veh, CNEP1R1 / RFU, BIVM-ERCC5 /// ERCC5 / Fold change vs veh, BIVM-ERCC5 /// ERCC5 / RFU, ILF3 / Fold change vs veh, ILF3 / RFU 11762660_at / Fold change /veh 11762660_at / RFU VCAN (11757783_s_at) / Fold change /veh VCAN (11757783_s_at) / RFU DDX43 (11728927_at) / Fold change /veh DDX43 (11728927_at) / RFU KRT8 (11758188_x_at) / Fold change /veh KRT8 (11758188_x_at) / RFU NKD1 (11759106_at) / Fold change /veh NKD1 (11759106_at) / RFU SRD5A1 (11742802_a_at) / Fold change /veh SRD5A1 (11742802_a_at) / RFU TPSAB1 /// TPSB2 (11721975_s_at) / Fold change /veh TPSAB1 /// TPSB2 (11721975_s_at) / RFU GSTM3 (11746129_a_at) / Fold change /veh GSTM3 (11746129_a_at) / RFU IL23R (11737362_x_at) / Fold change /veh IL23R (11737362_x_at) / RFU TMEM51 (11727254_a_at) / Fold change /veh TMEM51 (11727254_a_at) / RFU PIWIL2 (11732686_x_at) / Fold change /veh PIWIL2 (11732686_x_at) / RFU ORM1 (11744905_x_at) / Fold change /veh ORM1 (11744905_x_at) / RFU CCDC152 (11743942_at) / Fold change /veh CCDC152 (11743942_at) / RFU ECM1 (11717891_a_at) / Fold change /veh ECM1 (11717891_a_at) / RFU IL23R (11748794_a_at) / Fold change /veh IL23R (11748794_a_at) / RFU TNFAIP8L3 (11732012_x_at) / Fold change /veh TNFAIP8L3 (11732012_x_at) / RFU MBOAT4 (11741988_at) / Fold change /veh MBOAT4 (11741988_at) / RFU 11764193_at / Fold change /veh 11764193_at / RFU TMEM53 (11763286_at) / Fold change /veh TMEM53 (11763286_at) / RFU MAGEB2 (11727129_at) / Fold change /veh MAGEB2 (11727129_at) / RFU TMEM200A (11744735_a_at) / Fold change /veh TMEM200A (11744735_a_at) / RFU CCDC152 (11751479_a_at) / Fold change /veh CCDC152 (11751479_a_at) / RFU FAM211A (11726209_a_at) / Fold change /veh FAM211A (11726209_a_at) / RFU RGS16 (11746705_a_at) / Fold change /veh RGS16 (11746705_a_at) / RFU VCAN (11755009_s_at) / Fold change /veh VCAN (11755009_s_at) / RFU RHOB (11743442_s_at) / Fold change /veh RHOB (11743442_s_at) / RFU RGS16 (11720943_a_at) / Fold change /veh RGS16 (11720943_a_at) / RFU RGS16 (11720944_at) / Fold change /veh RGS16 (11720944_at) / RFU, VPS4B / Fold change vs veh, VPS4B / RFU, CREB1 / Fold change vs veh, CREB1 / RFU, DNAJC13 / Fold change vs veh, DNAJC13 / RFU, GNAQ / Fold change vs veh, GNAQ / RFU, CDK5R1 / Fold change vs veh, CDK5R1 / RFU, ZRANB3 / Fold change vs veh, ZRANB3 / RFU, CUL4A / Fold change vs veh, CUL4A / RFU, CCNY / Fold change vs veh, CCNY / RFU, UFL1 / Fold change vs veh, UFL1 / RFU, COG3 / Fold change vs veh, COG3 / RFU, DIAPH2 / Fold change vs veh, DIAPH2 / RFU, SKA2 / Fold change vs veh, SKA2 / RFU, AFF3 / Fold change vs veh, AFF3 / RFU, LMF1 / Fold change vs veh, LMF1 / RFU, IPO11 / Fold change vs veh, IPO11 / RFU, DFFB / Fold change vs veh, DFFB / RFU, FOXP1 / Fold change vs veh, FOXP1 / RFU, CARD8 / Fold change vs veh, CARD8 / RFU, STRN3 / Fold change vs veh, STRN3 / RFU, ADK / Fold change vs veh, ADK / RFU, RASSF2 / Fold change vs veh, RASSF2 / RFU, WIPF1 / Fold change vs veh, WIPF1 / RFU, LARP1B / Fold change vs veh, LARP1B / RFU, RASA1 / Fold change vs veh, RASA1 / RFU, RB1 / Fold change vs veh, RB1 / RFU, PPFIA1 / Fold change vs veh, PPFIA1 / RFU, MAT2A / Fold change vs veh, MAT2A / RFU, CCT5 / Fold change vs veh, CCT5 / RFU, WDR92 / Fold change vs veh, WDR92 / RFU, CUX1 / Fold change vs veh, CUX1 / RFU, TTC7A / Fold change vs veh, TTC7A / RFU, TMEM135 / Fold change vs veh, TMEM135 / RFU, DEPTOR / Fold change vs veh, DEPTOR / RFU, CPM / Fold change vs veh, CPM / RFU, DNAJB6 / Fold change vs veh, DNAJB6 / RFU, CACNA2D3 / Fold change vs veh, CACNA2D3 / RFU, DTX4 / Fold change vs veh, DTX4 / RFU, TFCP2 / Fold change vs veh, TFCP2 / RFU, GMCL1 /// GMCL1P1 / Fold change vs veh, GMCL1 /// GMCL1P1 / RFU, AEBP2 / Fold change vs veh, AEBP2 / RFU, SNHG1 /// SNORD22 /// SNORD25 /// SNORD26 /// SNORD27 /// SNORD28 /// SNORD29 /// SNORD31 / Fold change vs veh, SNHG1 /// SNORD22 /// SNORD25 /// SNORD26 /// SNORD27 /// SNORD28 /// SNORD29 /// SNORD31 / Fold change (Aza/veh), C12orf56 (ProbeSet 11735607_a_at) / Fold change (ACY-1035/veh), C12orf56 (ProbeSet 11735607_a_at) / Fold change (Aza/veh), FGFR1OP (ProbeSet 11751329_s_at) / Fold change (ACY-1035/veh), FGFR1OP (ProbeSet 11751329_s_at) / Fold change (Aza/veh), VPS36 (ProbeSet 11739960_a_at) / Fold change (ACY-1035/veh), VPS36 (ProbeSet 11739960_a_at) / RFU SYPL1 (11715823_x_at) / Fold change /veh SYPL1 (11715823_x_at) / RFU IGFBP7 (11715501_s_at) / Fold change /veh IGFBP7 (11715501_s_at) / RFU REEP3 (11722064_at) / Fold change /veh REEP3 (11722064_at) / RFU IGLL1 (11728026_x_at) / Fold change /veh IGLL1 (11728026_x_at): dose or concentration left out as unconfirmed
Conditions: MV-4-11 cells, 48 hours

Nc1ccc(-c2cccs2)cc1NC(=O)c1ccc2c(c1)cc(C1CC1)n2CCN1CCOCC1 [ACY-1035]
Fold change /veh RHOB (11743442_s_at): 1.20
